# Laboratory results as given in article PMC4833311, “Structure of Type IIL Restriction-Modification Enzyme MmeI in Complex with DNA Has Implications for Engineering New Specificities” (PLoS Biology, 2016).
# Assays:
# MmeI [1] = molecular target: T1, MmeI (Methylophilus methylotrophus, UniProt B2MU09); experiment: X-ray crystal structure, […] Å (SAD); type: binding; details: ternary complex with 29-mer DNA containing TCCGAC; AdoMet site of methyltransferase domain; pH 7.5, 293 K; calcium ions in model
# T1 construct: gene mmeIRM; residues 156-906 modelled, endonuclease domain 1-155 disordered; purified as described previously
# T1 sequence (B2MU09 1-919): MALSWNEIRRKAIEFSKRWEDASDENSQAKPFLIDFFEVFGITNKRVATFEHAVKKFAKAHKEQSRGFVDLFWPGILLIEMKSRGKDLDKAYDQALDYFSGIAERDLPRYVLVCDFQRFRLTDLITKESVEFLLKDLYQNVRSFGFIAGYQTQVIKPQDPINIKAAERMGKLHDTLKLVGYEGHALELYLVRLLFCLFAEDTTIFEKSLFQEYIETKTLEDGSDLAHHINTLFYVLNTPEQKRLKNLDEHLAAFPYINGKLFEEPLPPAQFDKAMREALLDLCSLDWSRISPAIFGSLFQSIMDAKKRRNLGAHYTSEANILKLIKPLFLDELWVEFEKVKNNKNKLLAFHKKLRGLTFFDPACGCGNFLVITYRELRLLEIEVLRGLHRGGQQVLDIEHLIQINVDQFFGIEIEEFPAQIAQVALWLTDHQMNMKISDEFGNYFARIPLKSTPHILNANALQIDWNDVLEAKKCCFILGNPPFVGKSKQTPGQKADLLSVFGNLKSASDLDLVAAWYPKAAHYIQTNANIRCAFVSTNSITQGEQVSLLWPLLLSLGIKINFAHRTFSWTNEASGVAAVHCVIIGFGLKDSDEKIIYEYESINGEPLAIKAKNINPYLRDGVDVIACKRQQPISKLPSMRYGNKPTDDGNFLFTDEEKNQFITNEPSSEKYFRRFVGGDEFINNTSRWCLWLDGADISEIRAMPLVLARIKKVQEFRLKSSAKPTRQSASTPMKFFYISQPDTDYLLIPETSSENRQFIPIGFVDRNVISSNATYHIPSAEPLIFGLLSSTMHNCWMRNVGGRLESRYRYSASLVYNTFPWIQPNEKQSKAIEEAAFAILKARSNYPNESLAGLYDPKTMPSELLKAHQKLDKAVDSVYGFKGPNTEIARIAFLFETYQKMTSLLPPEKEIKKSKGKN
# MmeI [2] = molecular target: T2, MmeI (Methylophilus methylotrophus, UniProt B2MU09 1-919); experiment: X-ray crystallography (2.6 A); Sinefungin; Ca2+ in model; Crystallization: 20% PEG 4K, 0.1 M Hepes pH 7.5, 0.1 M (NH4)2SO4, 293 K, with Sinefungin; no solution binding assay; details: protein: recombinant; blunt
# T2 sequence: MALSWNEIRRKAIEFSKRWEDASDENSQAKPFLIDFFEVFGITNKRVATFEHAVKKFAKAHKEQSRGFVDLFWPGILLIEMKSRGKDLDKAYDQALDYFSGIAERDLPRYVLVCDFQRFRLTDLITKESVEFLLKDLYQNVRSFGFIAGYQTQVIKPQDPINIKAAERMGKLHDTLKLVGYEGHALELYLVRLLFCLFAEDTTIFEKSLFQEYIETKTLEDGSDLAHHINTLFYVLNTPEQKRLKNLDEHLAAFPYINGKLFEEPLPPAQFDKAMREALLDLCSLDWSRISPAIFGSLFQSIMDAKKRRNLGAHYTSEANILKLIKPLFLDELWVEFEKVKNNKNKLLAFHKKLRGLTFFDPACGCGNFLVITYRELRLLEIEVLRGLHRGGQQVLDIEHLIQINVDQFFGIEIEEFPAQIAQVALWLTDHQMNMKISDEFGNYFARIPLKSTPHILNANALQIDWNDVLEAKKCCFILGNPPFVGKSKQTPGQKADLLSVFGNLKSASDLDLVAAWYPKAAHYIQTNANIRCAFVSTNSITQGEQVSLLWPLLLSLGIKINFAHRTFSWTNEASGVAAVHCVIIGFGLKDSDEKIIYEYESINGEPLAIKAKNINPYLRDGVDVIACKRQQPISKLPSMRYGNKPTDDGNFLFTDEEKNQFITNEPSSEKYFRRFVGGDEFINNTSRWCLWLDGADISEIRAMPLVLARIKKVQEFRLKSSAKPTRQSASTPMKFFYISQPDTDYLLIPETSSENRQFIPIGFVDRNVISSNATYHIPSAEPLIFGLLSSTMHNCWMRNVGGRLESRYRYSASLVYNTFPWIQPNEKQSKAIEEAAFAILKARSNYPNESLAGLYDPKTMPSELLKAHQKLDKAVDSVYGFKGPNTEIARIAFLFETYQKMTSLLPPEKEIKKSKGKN
Molecule,"X-ray crystal structure, 2.6 Å (SAD) (MmeI [1])",binding result (MmeI [2])
Nc1ncnc2c1ncn2[C@@H]1O[C@H](C[C@@H](N)CC[C@H](N)C(=O)O)[C@@H](O)[C@H]1O [Sinefungin],The SAM analog Sinefungin is tightly bound within the MTase domain via extensive hydrogen bonding,
"29-mer MmeI site duplex, 5-bromouracil substituted (dsDNA, U = 5-bromouracil (replaces several thymines outside the recognition site) in both strands) DNA 1: TATCCGACAUAACGCUAGUCACUAGCUUC DNA 2: GAAGCUAGUGACUAGCGUTAUGTCGGATA",,binds
